These compounds were tested against T1, human histamine H3 receptor (Homo sapiens, UniProt Q9Y5N1) (assay: [3H]-N-methylhistamine binding). Details: membranes of histamine H3 receptor-expressing SK-N-MC cells; 0.8 nM [3H]-N-methylhistamine; 45 minutes at 25° C.; Ki calculated with KD of 800 pM.
T1 construct: One microgram supercoiled H3 receptor cDNA was added to the cells and mixed; expressed in transfected cells; membranes prepared from cell pellets
Procedure: Screening using the human receptor is particularly important for the identification of new therapies for the treatment of human disease.
A 10 cm tissue culture dish with a confluent monolayer of SK-N-MC cells was split two days prior to transfection. Using sterile technique the media was removed and the cells were detached from the dish by the addition of trypsin. One fifth of the cells were then placed onto a new 10 cm dish. Cells were grown in a 37° C. incubator with 5% CO2 in Minimal Essential Media Eagle with 10% Fetal Bovine Serum. After two days cells were approximately 80% confluent. These were removed from the dish with trypsin and pelleted in a clinical centrifuge. […] One microgram supercoiled H3 receptor cDNA was added to the cells and mixed. The voltage for the electroporation was set at 0.25 kV, the capacitance is set at 960 μF.
After electroporation the cells were diluted into 10 mL complete media and plated onto four 10 cm dishes. Due to the variability in the efficiency of electroporation, four different concentrations of cells were plated. The ratios used were: 1:20, 1:10, and 1:5, with the remainder of the cells being added to the fourth dish. The cells were allowed to recover for 24 hours before adding the selection media (complete media with 600 μg/ml G418). After 10 days dishes were analyzed for surviving colonies of cells. Dishes with well-isolated colonies were used. Cells from individual colonies were isolated and tested. SK-N-MC cells were used because they give efficient coupling for inhibition of adenylate cyclase. The clones that gave the most robust inhibition of adenylate cyclase in response to histamine were used for further study.
Cell pellets from histamine H3 receptor-expressing SK-N-MC cells were homogenized in 20 mM Tris HCl/0.5 mM EDTA. Supernatants from a 800 g spin were collected, reccentrifuged at 30,000 g for 30 minutes. Pellets were rehomogenized in 50 mM Tris/5 mM EDTA (pH 7.4). Membranes were incubated with 0.8 nM [^3H]-N-methylhistamine plus/minus test compounds for 45 minutes at 25° C. and harvested by rapid filtration over GF/C glass fiber filters (pretreated with 0.3% polyethylenimine) followed by four washes with ice cold buffer. Filters were dried, added to 4 mL scintillation cocktail and then counted on a liquid scintillation counter.

T1 sequence (Q9Y5N1 whole entry): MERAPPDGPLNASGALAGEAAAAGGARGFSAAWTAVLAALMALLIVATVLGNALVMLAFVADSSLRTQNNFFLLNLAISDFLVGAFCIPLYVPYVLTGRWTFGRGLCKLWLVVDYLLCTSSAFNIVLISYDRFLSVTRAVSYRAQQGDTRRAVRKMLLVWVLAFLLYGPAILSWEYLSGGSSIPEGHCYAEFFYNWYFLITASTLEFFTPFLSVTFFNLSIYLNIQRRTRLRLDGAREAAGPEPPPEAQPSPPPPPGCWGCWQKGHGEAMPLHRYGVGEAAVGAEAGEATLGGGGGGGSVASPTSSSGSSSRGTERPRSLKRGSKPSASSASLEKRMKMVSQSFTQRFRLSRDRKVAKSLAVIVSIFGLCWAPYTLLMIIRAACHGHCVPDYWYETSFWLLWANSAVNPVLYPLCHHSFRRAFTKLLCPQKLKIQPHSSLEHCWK

Row | Compound | Ki [nM]
1 | Cc1cccn2cc(-c3ccc(OCCCNC4CCN(Cc5ccccc5)CC4)cc3)nc12 [Example 44, 2-[4-[N-[(1-Benzylpiperidino)amino]propoxy]phenyl]-8-methylimidazo[1,2-a]pyridine] | 150
2 | CCCNCC(O)COc1ccc(-c2cn3cccc(C)c3n2)cc1 (stereo not drawn) [Example 46, 2-[4-(2-hydroxy-3-propylaminopropoxy)phenyl]-8-methylimidazo[1,2-a]pyridine] | 1000
3 | CCCN(CCC)CC(O)COc1ccc(-c2cn3cccc(C)c3n2)cc1 (stereo not drawn) [Example 47, 2-(4-Dipropylamino(2-hydroxy)propoxyphenyl)-8-methylimidazo[1,2-a]pyridine] | 500
4 | CCCCN(CCCC)CC(O)COc1ccc(-c2cn3cccc(C)c3n2)cc1 (stereo not drawn) [Example 48, 2-(4-Dibutylamino(2-hydroxy)propoxyphenyl)-8-methylimidazo[1,2-a]pyridine] | 1000
5 | Cc1cccn2cc(-c3ccc(OCC(O)CNC(C)(C)C)cc3)nc12 (stereo not drawn) [Example 49, 2-(4-(2-hydroxy-3-(1,1-Dimethylethyl)aminopropoxy)phenyl)-8-methylimidazo[1,2-a]pyridine] | 1000
6 | Cc1cccn2cc(-c3ccc(OCC(O)CN4CCN(CCc5ccccc5)CC4)cc3)nc12 (stereo not drawn) [Example 50, 2-[4-[2-Hydroxy-3-(4-phenethylpiperazino)propoxy]phenyl]-8-methylimidazo[1,2-a]pyridi] | 1000
7 | Cc1cccn2cc(-c3ccc(OCC(O)CN4CCN(Cc5ccccc5)CC4)cc3)nc12 (stereo not drawn) [Example 51, 2-[4-[2-Hydroxy-3-(4-benzylpiperazino)propoxy]phenyl]-8-methylimidazo[1,2-a]pyridine] | 5000

The next lines start with the values.

Row | Ki [nM] | Compound
8 | 500 | Cc1cccn2cc(-c3ccc(OCCCN4CCN(CCc5ccccc5)CC4)cc3)nc12 [Example 45, 2-[4-[3-(4-Phenethylpiperazino)propoxy]phenyl]-8-methylimidazo[1,2-a]pyridine]
9 | 5 | c1ccn2cc(-c3ccc(OCCCN4CCCCC4)cc3)nc2c1 [Example 52, 2-[4-(3-Piperidin-1-yl-propoxy)-phenyl]-imidazo[1,2-a]pyridine]
10 | 630 | Cc1cccn2cc(-c3ccc(NS(=O)(=O)CCCN4CCCCC4)cc3)nc12 [Example 53, 3-Piperidin-1-yl-propane-1-sulfonic acid [4-(8-methyl-imidazo[1,2-a]pyridin-2-yl)-phenyl]]
11 | 1 | Cc1cccn2cc(-c3ccc(OCCCN4CCCCC4)cc3)nc12 [Example 54, 2-(4-Piperidinopropoxyphenyl)-8-methylimidazo[1,2-a]pyridine]
12 | 25 | Cc1cccn2cc(-c3ccc(OCCCN4CCOCC4)cc3)nc12 [Example 55, 2-(4-Morpholinopropoxyphenyl)-8-methylimidazo[1,2-a]pyridine]

Reference: patent US7087757B2, “Phenyl-substituted imidazopyridines” (Ortho-McNeil Pharmaceutical, Inc., priority 2000, dated 2006)
